Measured values from patent US6641783B1, “Chromatographic systems with pre-detector eluent switching” (priority 1999, dated 2003).

Legend:
[1] = Capacity factor of the test solute on an immobilized artificial membrane HPLC column; type: physicochemical; conditions: EsterIAM.PC C10/C3 column, 15% acetonitrile in PBS, 1 mL/min
From the text: (§1) The chromatographic process represents a reversible equilibrium of solutes between the mobile phases and the stationary phases. The magnitude of solute retention is a direct result from this equilibrium and is typically expressed by a parameter, the capacity factor, k′=(tr−to)/to where to is the dead time and tr is the retention time of the solutes. The capacity factor is therefore a stoichiometric mass distribution equilibrium of solutes between the mobile phases and the stationary phases, and its determination allows the calculation of various physicochemical values according to pre-determined algorithms.
(§2) Unless otherwise indicated, the experimental data reported in this section was collected under the following conditions: UV detection at 280 nm, UV flow cell: 14 μL, mobile phase: 15% acetonitrile in PBS buffer at 1 mL/min., injection volume: 10 μL (sample amount: 2 μg), eluent switch rate: 1 Hz/column, and one pump per column (one binary pump used at two different pumps).
(§3) Retention time data is reported as capacity factors k′=(tr−to)/to. The most critical preliminary data to obtain, however, was to experimentally determine the minimum peak washing times (volumes) needed to obtain good chromatographic peak characterization with the hardware designed and assembled as shown in FIG. 7. […]

[2] = Capacity factor of the test solute on a C8 HPLC column; type: physicochemical; conditions: 15% acetonitrile in PBS, 1 mL/min
From the text: as §1, §2, §3

[3] = Eluent Switch (parallel chromatography), 1 Hz/column
[4] = No Switch (single column chromatography)

COc1ccc(C)cc1 [4-methylanisole]
k′ (Capacity factor) [1, 3]: 7.13 | k′ (Capacity factor) [1, 4]: 7.48 | k′ (Capacity factor) [2, 3]: 23.71 | k′ (Capacity factor) [2, 4]: 23.04
